PubChem BioAssay (NCI)
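Compound exposure: 48 hours, 5 concentrations, 96-well plates. TGI: concentration producing complete growth inhibition.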

Key:
Assay in all cases: DTP human tumour cell line panel, 48 h
SNB-19 CNS = tested on: SNB-19 CNS
KM12 colon = tested on: KM12 colon
CCRF-CEM leukemia = tested on: CCRF-CEM leukemia
SK-MEL-5 melanoma = tested on: SK-MEL-5 melanoma
NCI-H460 lung = tested on: NCI-H460 lung
PC-3 prostate = tested on: PC-3 prostate
MOLT-4 leukemia = tested on: MOLT-4 leukemia
HCC-2998 colon = tested on: HCC-2998 colon
HL-60(TB) leukemia = tested on: HL-60(TB) leukemia
OVCAR-8 ovarian = tested on: OVCAR-8 ovarian
U251 CNS = tested on: U251 CNS
SF-268 CNS = tested on: SF-268 CNS
SF-295 CNS = tested on: SF-295 CNS
HT29 colon = tested on: HT29 colon
SW-620 colon = tested on: SW-620 colon
COLO 205 colon = tested on: COLO 205 colon
LOX IMVI melanoma = tested on: LOX IMVI melanoma
CAKI-1 renal = tested on: CAKI-1 renal
BT-549 breast = tested on: BT-549 breast
DU-145 prostate = tested on: DU-145 prostate

Row | Compound | TGI (SNB-19 CNS) [µM] | TGI (KM12 colon) [µM] | TGI (CCRF-CEM leukemia) [µM] | TGI (SK-MEL-5 melanoma) [µM] | TGI (NCI-H460 lung) [µM] | TGI (PC-3 prostate) [µM] | TGI (MOLT-4 leukemia) [µM] | TGI (HCC-2998 colon) [µM] | TGI (HL-60(TB) leukemia) [µM] | TGI (OVCAR-8 ovarian) [µM] | TGI (U251 CNS) [µM] | TGI (SF-268 CNS) [µM] | TGI (SF-295 CNS) [µM] | TGI (HT29 colon) [µM] | TGI (SW-620 colon) [µM] | TGI (COLO 205 colon) [µM] | TGI (LOX IMVI melanoma) [µM] | TGI (CAKI-1 renal) [µM] | TGI (BT-549 breast) [µM] | TGI (DU-145 prostate) [µM]
1 | COc1cc(C2c3cc4c(cc3[C@@H](Nc3ccccc3)C3CO[C@@H](OC)[C@H]23)OCO4)cc(OC)c1O (some centres not stated) | > 25 | > 25 | 11.3 | > 25 | > 25 | > 25 | 6.34 | > 25 | 8.24 | > 25 | > 25 | > 25 | 12.4 | 10.7 | > 25 | > 25 |  |  |  | 
2 | CC1=CC(=O)NCCN1C | > 100 | > 100 | > 100 | > 100 | > 100 |  | > 100 | > 100 | > 100 | > 100 | > 100 | > 100 | > 100 | > 100 | > 100 | > 100 | > 100 | > 100 |  | 
3 | CC(=O)OCC1OC(N2C(c3ccccc3)=CC(c3ccccc3)C(C#N)=C2S)C(OC(C)=O)C(OC(C)=O)C1OC(C)=O (configuration not stated) | 26.5 | > 44.9 | > 100 | 9.98 | > 49.5 |  | > 100 | > 100 | > 100 | 24.2 | 16.2 | 19.6 | 10.1 | > 82.5 | > 100 |  | > 42.5 | 7.73 | 20.6 | > 100
4 | O=C1CCC(c2ccccc2)C(O)(C(=O)O)C1 (configuration not stated) | > 100 | > 100 | > 100 | > 100 | > 100 |  | > 100 | > 100 | > 100 | > 100 | > 100 | > 100 | > 100 | > 100 | > 100 | > 100 | > 100 | > 100 |  | 
5 | COc1cccc(C2c3cc4c(cc3OC(N3CCCC3)C2C)OCO4)c1 (configuration not stated) | 61.4 | 33 | 17.1 | 18.5 |  | 46.9 |  | 24.9 |  | > 100 |  | 76.8 | 37.8 | 18.4 | > 100 | 36.7 | 30.5 | 8.61 |  | 58.6
6 | CCCCCCCCCCCCCCCCCc1cccc(OCOCCOC)c1CO | > 100 | > 100 | > 100 | > 100 | > 100 | > 100 | > 100 | > 100 | > 100 | > 100 | > 100 | > 100 | > 100 | > 100 | > 100 | > 100 |  | > 100 | > 100 | 
7 | CN(C)/N=C(\CCN1CCCC1)CC(c1ccccc1)c1c(O)c2ccccc2oc1=O (configuration not stated) | > 100 |  | > 100 |  |  |  |  | > 100 | 72.9 |  |  | > 100 | > 100 | > 100 | > 100 | > 100 | > 100 | > 100 |  | 
8 | N#CC1=C(N2CCCC2)NC(=O)CC1=O | > 100 | > 100 | > 100 | > 100 | > 100 | > 100 | > 100 | > 100 | > 100 | > 100 | > 100 | > 100 | > 100 | > 100 | > 100 | > 100 | > 100 | > 100 |  | > 100
9 | CC1=CC(=O)NP(=O)(Oc2ccc(C)cc2)N1 (configuration not stated) | > 100 | > 100 | > 100 | > 100 | > 100 |  | > 100 |  | > 100 | > 100 | > 100 | > 100 | > 100 | > 100 | > 100 | > 100 | > 100 | > 100 |  | 
10 | Cc1cc(=O)[nH]c(NNC(C#N)c2ccc(O)cc2)n1 (configuration not stated) |  | > 100 | > 100 | > 100 | > 100 |  | > 100 |  | > 100 | > 100 | > 100 | > 100 | > 100 | > 100 | > 100 | > 100 | > 100 | > 100 |  | 
11 | Cc1ccc2nc3ccccc3c(C3C4C(=O)N(c5ccc(Br)cc5Cl)C(=O)C4ON3C(C(N)=O)c3ccccc3)c2c1 (configuration not stated) | > 25 | > 25 | > 25 | > 25 | > 25 | > 25 | > 25 |  | > 25 | > 25 | > 25 | > 25 | > 25 | > 25 | > 25 | > 25 | > 25 | 10.5 |  | > 25
12 | CCOC(=O)C(Cl)(NC(=O)c1ccc(F)cc1)C(F)(F)F (configuration not stated) | > 100 | > 100 | > 100 | > 100 | > 100 | > 100 | > 100 | > 100 | > 100 | > 100 | > 100 | > 100 | > 100 | > 100 | > 100 | > 100 | > 100 | > 100 |  | > 100
13 | CC1CN=C(Nc2ccc(S(N)(=O)=O)cc2)S1 (configuration not stated) | > 100 | > 100 | > 100 | > 100 | > 100 | > 10 | > 100 | > 100 | > 100 | > 100 | > 100 | > 100 | > 100 | > 100 | > 100 | > 100 | > 10 | > 100 |  | > 100
14 | Cc1[nH]c(=O)[nH]c(=S)c1C(=O)NC(C)(CO)CO | > 100 | > 100 | > 100 | > 100 | > 100 | > 100 | > 100 | > 100 | > 100 | > 100 | > 100 | > 100 | > 100 | > 100 | > 100 | > 100 | > 100 | > 100 |  | > 100
